Experimental data: patent publication US8691817B2, “Sulfonic amide and sulfoximine-substituted diaryl-dihydropyrimidinones and usage thereof” (Bayer Intellectual Property GmbH, priority 2009, dated 2014)
In brackets after ≈: the same amount, converted by molar mass.

Key:
[1] = target: T1, human neutrophil elastase (HNE) (Homo sapiens, UniProt P08246); test: In vitro HNE inhibition assay; format: biochemical; details: HNE concentration of 80 pM; substrate MeOSuc-Ala-Ala-Pro-Val-AMC; 37° C., 2 hours
T1 construct: purchased Serva, Heidelberg
T1 sequence (P08246 30-267): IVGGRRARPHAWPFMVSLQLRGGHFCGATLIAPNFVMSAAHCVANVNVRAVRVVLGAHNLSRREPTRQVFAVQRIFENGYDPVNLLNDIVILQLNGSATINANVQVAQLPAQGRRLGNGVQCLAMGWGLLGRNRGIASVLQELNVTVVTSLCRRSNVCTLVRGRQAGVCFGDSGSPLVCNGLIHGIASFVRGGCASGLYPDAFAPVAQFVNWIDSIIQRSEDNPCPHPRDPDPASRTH
Description: The potency of the compounds of the invention is ascertained in an in vitro inhibition assay. The HNE-mediated amidolytic cleavage of a suitable peptide substrate leads in this connection to an increase in the fluorescent light. The signal intensity of the fluorescent light is directly proportional to the enzyme activity.
Enzyme (80 pM HNE; from Serva, Heidelberg) and substrate (20 μM MeOSuc-Ala-Ala-Pro-Val-AMC; from Bachem, Weil am Rhein) are incubated in an assay volume of in total 50 μl of assay buffer (0.1 M HEPES pH 7.4, 0.5 M NaCl, 0.1% w/v BSA, 1% v/v DMSO) in a 384-well microtiter plate in the presence and absence of the test substance at 37° C. for 2 hours.

rat hepatocytes = test: Hepatocyte assay to determine the metabolic stability; format: in vitro ADME; details: for Fmax, maximum possible bioavailability after oral administration (well-stirred): rat
Description: Seven samples of the incubation solution are taken in a fixed time pattern for the […] analysis in order to determine the half-life (i.e. the degradation) of the compound in each case. Various clearance parameters (CL) and Fmax values are calculated from this half-life (see below).
The Cl and Fmax values represent a measure of the phase 1 and phase 2 metabolism of the compounds in the hepatocytes. In order to minimize the influence of the organic solvent on the enzymes in the incubation mixtures, this concentration is generally limited to 1% (acetonitrile) or 0.1% (DMSO).
A cell count for hepatocytes in the liver of 1.1*10^8 cells/g of liver is used for calculation for all species and breeds.
The calculated parameters and their meaning are: • Fmax well-stirred [%] maximum possible bioavailability after oral administration • Calculation: (1-CLblood well-stirred/QH)*100 • CLblood well-stirred [L/(h*kg)] calculated blood clearance (well-stirred model) • Calculation: (QH*CL′intrinsic)/(QH+CL′intrinsic) • CL′intrinsic [ml/(min*kg] maximum ability of the liver (of the hepatocytes) to metabolize a compound (on the assumption that the hepatic blood flow is not rate-limiting) • Calculation: CL′intrinsic, apparent*species-specific hepatocyte count [1.1* 10^8/g of liver]*species-specific liver weight [g/kg] • CL′intrinsic, apparent [ml/(min*mg)] normalizes the elimination constant by dividing it by the hepatocyte cell count x (x*10^6/ml) employed • Calculation: ke1 [1/min]/(cell count [x*10^6]/incubation volumes [ml]) • (QH=species-specific hepatic blood flow).

[2] = Determination of the solubility in PBS buffer pH 6.5; format: physicochemical; details: 20° C.
Description: B-7. Determination of the Solubility Reagents Required: • PBS buffer pH 6.5: 90.00 g of NaCl p.a. […] Preparation of the Starting Solution (Original Solution):
10 μl of the original solution are transferred into a microtiter plate, and 1000 μl of PBS buffer pH 6.5 are added.
From each of the sample solutions, 100 μl of the supernatant are removed and diluted 1:5 and 1:100 with DMSO. From each dilution, a sample is transferred into a vessel suitable for HPLC analysis.
The samples are analysed by RP-HPLC. Quantification is carried out using a two-point calibration curve of the test compound in DMSO. The solubility is expressed in mg/liter. Analysis sequence: 1) calibration solution […]; 2) calibration solution 20 μg/ml; 3) sample solution 1:5; 4) sample solution 1:100.

Row | Compound | IC50 [1] [nM] | CLblood, calculated blood clearance (well-stirred) (rat hepatocytes; hepatocytes) [mL/min/kg] | Fmax, maximum possible bioavailability after oral administration (well-stirred) (rat hepatocytes) [%] | further results
1 | CNS(=O)(=O)c1cc(C#N)ccc1[C@H]1NC(=O)N(c2cccc(C(F)(F)F)c2)C(C)=C1C#N [Example 2, 5-Cyano-2-{(4S)-5-cyano-6-methyl-2-oxo-1-[3-(trifluoromethyl)phenyl]-1,2,3,4-tetrahydropyrimidin-4-yl}-N-methylbenzenesulfonamide] | < 0.3 | 31.7 | 54 | 
2 | CC1=C(C#N)[C@@H](c2ccc(C#N)cc2S(=O)(=O)NCC2CCN(C)C2)NC(=O)N1c1cccc(C(F)(F)F)c1 (stereo partly drawn) [Example 21, 5-cyano-2-{(4S)-5-cyano-6-methyl-2-oxo-1-[3-(trifluoromethyl)phenyl]-1,2,3,4-tetrahydropyrimidin-4-yl}-N-[(1-methylpyrrolidin-3-yl)methyl]-benzenesulfonamide] | 0.7 |  |  | 
3 | CC1=C(C#N)[C@@H](c2ccc(C#N)cc2S(C)(=N)=O)N(C)C(=O)N1c1cccc(C(F)(F)F)c1 (mixture of isomers) [Example 38, (SS)-(4S)-4-[4-Cyano-2-(S-methylsulfonimidoyl)phenyl]-3,6-dimethyl-2-oxo-1-[3-(trifluoromethyl)phenyl]-1,2,3,4-tetrahydropyrimidine-5-carbonitrile or (RS)-(4S)-4-[4-cyano-2-(S-methylsulfonimidoyl)phenyl]-3,6-dimethyl-2-oxo-1-[3-(trifluoromethyl)phenyl]-1,2,3,4-tetrahydropyrimidine-5-carbonitrile] |  |  |  | Solubility ([2]; 24 hours): 300 µg/mL (≈ 634 µM); CLblood, calculated blood clearance (well-stirred) (rat hepatocytes; after incubation with rat hepatocytes): 0 mL/min/kg
4 | CC1=C(C#N)[C@@H](c2ccc(C#N)cc2S(=O)(=O)NCC(N)=O)N(C)C(=O)N1c1cccc(C(F)(F)F)c1 [Example 13, N^2-[(5-Cyano-2-{(4S)-5-cyano-3,6-dimethyl-2-oxo-1-[3-(trifluoromethyl)phenyl]-1,2,3,4-tetrahydropyrimidin-4-yl}phenyl)sulfonyl]glycinamide] | < 0.3 | 31.7 | 54 | 
5 | CC1=C(C#N)[C@@H](c2ccc(C#N)cc2S(N)(=O)=O)NC(=O)N1c1cccc(C(F)(F)F)c1 [Example 1, 5-Cyano-2-{(4S)-5-cyano-6-methyl-2-oxo-1-[3-(trifluoromethyl)phenyl]-1,2,3,4-tetrahydropyrimidin-4-yl}benzenesulfonamide] | 0.4 | 1.7 | 97 | 
6 | CC1=C(C#N)[C@@H](c2ccc(C#N)cc2S(=O)(=O)N2CCOCC2)NC(=O)N1c1cccc(C(F)(F)F)c1 [Example 4, (4S)-4-[4-Cyano-2-(morpholin-4-ylsulfonyl)phenyl]-6-methyl-2-oxo-1-[3-(trifluoromethyl)phenyl]-1,2,3,4-tetrahydropyrimidine-5-carbonitrile] | < 0.3 |  |  | 
7 | CC1=C(C#N)[C@@H](c2ccc(C#N)cc2S(=O)(=O)NCCO)N(C)C(=O)N1c1cccc(C(F)(F)F)c1 [Example 11, 5-Cyano-2-{(4S)-5-cyano-3,6-dimethyl-2-oxo-1-[3-(trifluoromethyl)phenyl]-1,2,3,4-tetrahydropyrimidin-4-yl}-N-(2-hydroxyethyl)benzenesulfonamide] | < 0.3 |  |  | solubility at 24 h ([2]; aqueous buffer, kinetic from dmso stock): 300 µg/mL (≈ 577 µM)
8 | CC1=C(C#N)[C@@H](c2ccc(C#N)cc2S(=O)(=O)NCCCN2CCCC2=O)NC(=O)N1c1cccc(C(F)(F)F)c1 [Example 14] | 4.5 |  |  | 
9 | CC1=C(C#N)[C@@H](c2ccc(C#N)cc2S(C)(=N)=O)NC(=O)N1c1cccc(C(F)(F)F)c1 (mixture of isomers) [Example 41, (SS)-(4S)-4-[4-Cyano-2-(S-methylsulfonimidoyl)phenyl]-6-methyl-2-oxo-1-[3-(trifluoromethyl)phenyl]-1,2,3,4-tetrahydropyrimidine-5-carbonitrile or (RS)-(4S)-4-[4-cyano-2-(S-methylsulfonimidoyl)phenyl]-6-methyl-2-oxo-1-[3-(trifluoromethyl)phenyl]-1,2,3,4-tetrahydropyrimidine-5-carbonitrile] | 0.9 | 0 | 100 | 
10 | CC1=C(C#N)[C@@H](c2ccc(C#N)cc2S(=O)(=O)N(C)C)NC(=O)N1c1cccc(C(F)(F)F)c1 [Example 3, 5-Cyano-2-{(4S)-5-cyano-6-methyl-2-oxo-1-[3-(trifluoromethyl)phenyl]-1,2,3,4-tetrahydropyrimidin-4-yl}-N,N-dimethylbenzenesulfonamide] | < 0.3 |  |  | 
11 | CC1=C(C#N)[C@@H](c2ccc(C#N)cc2S(N)(=O)=O)N(C)C(=O)N1c1cccc(C(F)(F)F)c1 [Example 10, 5-Cyano-2-{(4S)-5-cyano-3,6-dimethyl-2-oxo-1-[3-(trifluoromethyl)phenyl]-1,2,3,4-tetrahydropyrimidin-4-yl}benzenesulfonamide] | < 0.3 |  |  | 
